According to patent US20050288307A1, “Anti-viral compounds” (priority 2002, published 2005):
pIC50: −log10 of the molar value. Like-named read-outs stand apart in the source and are kept apart here.

Key:
HIV-1RoJo/PBMC = assay: Anti-HIV efficacy in fresh human PBMCs, strain RoJo; assay type: cell-based; conditions: HIV-1RoJo/PBMC; for pIC50: Human immunodeficiency virus 1, read-out: IC50 (concentration inhibiting virus replication by 50%); for IC90: Human immunodeficiency virus 1, read-out: IC90 (concentration inhibiting virus replication by 90%)
Description: Fresh PBMCs, seronegative for HIV and HBV, were isolated from screened donors (Interstate Blood Bank, Inc. Memphis, Tenn.). Cells were pelleted/washed 2-3 times by low speed centrifugation and re-suspension in PBS to remove contaminating platelets. […] Banded PBMCs were gently aspirated from the resulting interface and subsequently washed with PBS by low speed centrifugation. […] The cells were allowed to incubate at 37° C. […] IL-2 is included in the culture medium to maintain the cell division initiated by the PHA mitogenic stimulation. PBMCs were maintained in this with bi-weekly medium changes until used in the assay protocol. Cells were kept in culture for a maximum of two weeks before being deemed too old for use in assays and discarded. Monocytes were depleted from the culture as the result of adherence to the tissue culture flask.
Tritiated thymidine triphosphate (^3H-TTP, 80 Ci/mmol, NEN) was received in 1:1 dH2O:Ethanol at 1 mCi/mL. Poly rA:oligo dT template:primer (Pharmacia) was prepared as a stock solution, followed by aliquoting and storage at −20° C. The RT reaction buffer was prepared fresh on a daily basis. The final reaction mixture was prepared by combining ^3H-TTP, dH2O, poly rA:oligo dT stock and reaction buffer. This reaction mixture was placed in a round bottom microtiter plate and supernatant containing virus was added and mixed. The plate was incubated at 37° C. for 60 minutes. Following incubation, the reaction volume was spotted onto DE81 filter-mats (Wallac), in a sodium phosphate buffer or 2×SSC (Life Technologies). Next they were washed in distilled water, in 70% ethanol, and then dried. Incorporated radioactivity (counts per minute, CPM) was quantified using standard liquid scintillation techniques.

CDK9/cyclin T1 = CDK9/cyclin T1 (Homo sapiens, UniProt P50750); assay: CDK9 assay (CTD peptide substrate); assay type: biochemical
Chain of CDK9/cyclin T1 (P50750 whole entry): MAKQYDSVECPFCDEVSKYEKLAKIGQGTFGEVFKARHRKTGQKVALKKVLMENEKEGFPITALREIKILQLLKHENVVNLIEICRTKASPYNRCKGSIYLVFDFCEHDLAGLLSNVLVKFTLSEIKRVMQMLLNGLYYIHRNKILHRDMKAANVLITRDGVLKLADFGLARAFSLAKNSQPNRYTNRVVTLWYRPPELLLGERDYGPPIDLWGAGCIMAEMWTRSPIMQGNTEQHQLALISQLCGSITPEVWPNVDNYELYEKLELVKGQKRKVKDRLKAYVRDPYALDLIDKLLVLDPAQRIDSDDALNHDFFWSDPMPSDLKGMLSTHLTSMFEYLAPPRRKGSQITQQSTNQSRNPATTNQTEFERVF
Chain of CDK9/cyclin T1 (O60563 whole entry partner): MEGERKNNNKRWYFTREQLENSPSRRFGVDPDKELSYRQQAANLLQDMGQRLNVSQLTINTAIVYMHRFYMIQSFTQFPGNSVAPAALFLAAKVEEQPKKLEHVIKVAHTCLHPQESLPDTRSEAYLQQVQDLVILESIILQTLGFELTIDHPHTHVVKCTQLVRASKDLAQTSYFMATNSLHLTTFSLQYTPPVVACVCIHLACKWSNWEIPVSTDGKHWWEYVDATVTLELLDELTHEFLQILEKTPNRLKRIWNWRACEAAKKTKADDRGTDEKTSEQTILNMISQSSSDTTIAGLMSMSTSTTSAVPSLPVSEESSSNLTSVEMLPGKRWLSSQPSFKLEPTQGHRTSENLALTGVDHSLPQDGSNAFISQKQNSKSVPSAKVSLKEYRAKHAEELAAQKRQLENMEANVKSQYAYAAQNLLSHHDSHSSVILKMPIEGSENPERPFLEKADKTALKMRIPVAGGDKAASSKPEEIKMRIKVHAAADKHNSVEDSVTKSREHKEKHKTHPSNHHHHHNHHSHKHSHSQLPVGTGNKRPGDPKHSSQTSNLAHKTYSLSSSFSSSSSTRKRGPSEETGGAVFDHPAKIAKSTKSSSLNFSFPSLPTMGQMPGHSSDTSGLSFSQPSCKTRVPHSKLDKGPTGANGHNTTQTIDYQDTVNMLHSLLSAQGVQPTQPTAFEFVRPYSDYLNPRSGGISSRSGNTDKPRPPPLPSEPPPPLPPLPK
Outline: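 Recombinant human CDK7/cyclin H or CDK9/cyclin T1 with biotinylated CTD peptide, 45 min at 30 °C, pH 7.2 MOPS buffer, 15 mM MgCl2, 100 μM ATP with trace [γ-32P]ATP. Avidin capture on P81 filters, phosphoric acid washes, 32P incorporation by scintillation counting.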

HIV-1 = assay: Anti-viral cell-based assays; conditions: result in words
CDK2/Cyclin E = target: T1, CDK2/Cyclin E (Homo sapiens, UniProt P24941); assay: CDK2/cyclin E kinase assay (GST-Rb phosphorylation); assay type: biochemical;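 further: enzyme source: His-tagged CDK2/cyclin E complex co-expressed recombinantly in Sf9 insect cells using baculovirus constructs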
T1 construct: His; made in house; host or cells: Sf9 insect cells (baculovirus)
Description: (§1) His-tagged CDK2/Cyclin E and CDK1/Cyclin B may be co-expressed and PKCα singularly expressed in Sf 9 insect cells infected with the appropriate baculovirus constructs. The cells are harvested two days after infection by low speed centrifugation and the proteins purified from the insect cell pellets by Metal-chelate chromatography. Briefly, the insect cell pellet is lysed in Buffer A (10 mM Tris-HCl, pH 8.0, 150 mM NaCl, 0.02% NP40 and 5 mM β-marcaptoethanol, 1 mM NaF. 1 mM Na3VO4 and Protease Inhibitors Coctail (Sigma) containing AEBSF, pepstatin A, E 64, bestatin, leupeptin) by sonication. The soluble fraction is cleared by centrifugation and loaded onto Ni-NTA-Agarose (Quiagen). Non bound proteins were washed off with 300 mM NaCl, 5-15 mM Imidazole in Buffer A and the bound proteins eluted with 250 mM Imidazole in Buffer A. The purified proteins are extensively dialyzed against Storage buffer (20 mM HEPES pH 7.4, 50 mM NaCl, 2 mM DTT, 1 mM EDTA, 1 mM EGTA, 0.02% NP40, 10% v/v Glycerol) aliquoted and stored at −70° C.

CDK4/Cyclin D1 = CDK4/Cyclin D1 (Homo sapiens, UniProt P11802); assay: CDK4/cyclin D1 kinase assay (GST-Rb phosphorylation); assay type: biochemical
Chain of CDK4/Cyclin D1 (P11802 whole entry, species assumed): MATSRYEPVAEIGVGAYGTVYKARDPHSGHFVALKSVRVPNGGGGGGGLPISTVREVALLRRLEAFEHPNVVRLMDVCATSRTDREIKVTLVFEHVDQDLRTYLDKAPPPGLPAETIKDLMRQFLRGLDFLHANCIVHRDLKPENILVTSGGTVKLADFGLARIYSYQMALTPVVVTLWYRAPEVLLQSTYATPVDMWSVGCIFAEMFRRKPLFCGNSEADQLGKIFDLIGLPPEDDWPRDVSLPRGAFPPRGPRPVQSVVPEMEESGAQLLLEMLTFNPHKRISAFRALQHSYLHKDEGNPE
Chain of CDK4/Cyclin D1 (P24385 whole entry partner, species assumed): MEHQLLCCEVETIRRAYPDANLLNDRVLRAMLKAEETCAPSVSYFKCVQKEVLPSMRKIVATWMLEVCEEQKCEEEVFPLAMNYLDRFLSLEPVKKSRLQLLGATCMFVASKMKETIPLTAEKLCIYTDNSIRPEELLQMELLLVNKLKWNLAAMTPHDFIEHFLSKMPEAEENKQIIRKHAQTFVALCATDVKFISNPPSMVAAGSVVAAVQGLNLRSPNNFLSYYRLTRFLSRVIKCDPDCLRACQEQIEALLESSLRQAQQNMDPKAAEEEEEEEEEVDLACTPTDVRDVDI

[1] = Compound cytotoxicity in PBMC assay plates (MTS cell viability); conditions: human, TC50 (concentration decreasing cell viability by 50%)
CDK7/cyclin H = CDK7/cyclin H (Homo sapiens, UniProt P50613); assay: CDK7 assay (CTD peptide substrate); assay type: biochemical
Chain of CDK7/cyclin H (P50613 whole entry): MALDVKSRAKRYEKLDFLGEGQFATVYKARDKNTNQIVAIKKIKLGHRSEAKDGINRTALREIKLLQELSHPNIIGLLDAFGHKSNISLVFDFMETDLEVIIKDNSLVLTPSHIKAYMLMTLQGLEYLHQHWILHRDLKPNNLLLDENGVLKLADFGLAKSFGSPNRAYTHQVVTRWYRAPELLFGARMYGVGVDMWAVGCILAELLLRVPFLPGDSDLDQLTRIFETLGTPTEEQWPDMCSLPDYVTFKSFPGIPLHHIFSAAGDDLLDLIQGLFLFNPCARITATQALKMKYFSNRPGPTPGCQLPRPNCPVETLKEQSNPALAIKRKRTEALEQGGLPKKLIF
Chain of CDK7/cyclin H (P51946 whole entry partner): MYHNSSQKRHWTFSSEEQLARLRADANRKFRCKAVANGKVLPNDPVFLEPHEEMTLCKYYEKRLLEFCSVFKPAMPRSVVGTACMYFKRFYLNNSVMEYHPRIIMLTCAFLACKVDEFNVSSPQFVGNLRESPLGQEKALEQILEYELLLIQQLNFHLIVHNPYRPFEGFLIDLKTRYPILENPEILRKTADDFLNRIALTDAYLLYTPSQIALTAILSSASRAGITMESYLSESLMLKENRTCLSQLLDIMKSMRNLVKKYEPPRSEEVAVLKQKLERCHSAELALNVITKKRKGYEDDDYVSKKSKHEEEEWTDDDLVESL
Description: CTD peptide substrate (biotinyl-Ahx-(Tyr-Ser-Pro-Thr-Ser-Pro-Ser)4-NH2; 1-2 mg/mL) and recombinant human CDK7/cyclin H, CDK9/cyclin T1, or CDK9/cyclin K (0.5-2 μg) were incubated for 45 min at 30° C. in the presence of varying amounts of test compound in 20 mM MOPS pH 7.2, 25 mM β-glycerophosphate, 5 mM EGTA, 1 mM DTT, 1 mM sodium vanadate, 15 mM MgCl2, and 100 μM ATP (containing a trace amount of ^32PγATP) in a total volume of 25 μL in a 96-well microtiter plate. The reaction was stopped by placing the plate on ice for 2 min. Avidin (50 μg) was added to each well, and the plate was incubated at room temp for 30 min. The samples were transferred to a 96-well P81 filter plate, and washed (4×200 μL per well) with 75 mM phosphoric acid. Microscint 40 scintillation liquid (50 μL) was added to each well, and the amount of ^32P incorporation for each sample was measured using a Packard Topcount microplate scintillation counter.

CDK1/Cyclin B = CDK1/Cyclin B (Homo sapiens, UniProt P06493); assay: CDK1/cyclin B kinase assay (GST-Rb phosphorylation);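 further: Enzyme: His-tagged CDK1/Cyclin B co-expressed in baculovirus-infected Sf9 insect cells, purified via metal-chelate chromatography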
Chain of CDK1/Cyclin B (P06493 whole entry, species assumed): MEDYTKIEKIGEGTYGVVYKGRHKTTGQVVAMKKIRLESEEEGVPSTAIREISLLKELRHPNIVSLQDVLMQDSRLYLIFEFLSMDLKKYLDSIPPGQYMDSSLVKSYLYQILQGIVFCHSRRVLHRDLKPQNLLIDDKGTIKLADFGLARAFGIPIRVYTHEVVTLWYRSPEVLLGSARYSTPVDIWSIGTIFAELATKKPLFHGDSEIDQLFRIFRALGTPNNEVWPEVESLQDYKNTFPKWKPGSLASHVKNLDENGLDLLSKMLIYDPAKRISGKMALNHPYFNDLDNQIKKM
Chain of CDK1/Cyclin B (P14635 whole entry partner, species assumed): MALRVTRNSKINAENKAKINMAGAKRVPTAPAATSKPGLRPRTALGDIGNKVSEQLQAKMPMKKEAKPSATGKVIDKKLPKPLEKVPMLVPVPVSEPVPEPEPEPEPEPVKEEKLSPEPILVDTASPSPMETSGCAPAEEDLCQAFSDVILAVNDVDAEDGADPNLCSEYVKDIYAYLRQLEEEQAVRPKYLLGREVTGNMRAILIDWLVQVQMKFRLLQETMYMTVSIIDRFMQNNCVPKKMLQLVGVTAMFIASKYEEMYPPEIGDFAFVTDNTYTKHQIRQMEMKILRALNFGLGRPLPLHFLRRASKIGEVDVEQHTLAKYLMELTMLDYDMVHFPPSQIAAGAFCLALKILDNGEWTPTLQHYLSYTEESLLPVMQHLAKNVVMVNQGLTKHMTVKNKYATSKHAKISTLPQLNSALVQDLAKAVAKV
Description: as §1

SAPK2a = SAPK2a (Homo sapiens, UniProt Q16539); assay: Kinase specificity panel: SAPK2a; assay type: biochemical; conditions: Table 2
Chain of SAPK2a (Q16539 whole entry, species assumed): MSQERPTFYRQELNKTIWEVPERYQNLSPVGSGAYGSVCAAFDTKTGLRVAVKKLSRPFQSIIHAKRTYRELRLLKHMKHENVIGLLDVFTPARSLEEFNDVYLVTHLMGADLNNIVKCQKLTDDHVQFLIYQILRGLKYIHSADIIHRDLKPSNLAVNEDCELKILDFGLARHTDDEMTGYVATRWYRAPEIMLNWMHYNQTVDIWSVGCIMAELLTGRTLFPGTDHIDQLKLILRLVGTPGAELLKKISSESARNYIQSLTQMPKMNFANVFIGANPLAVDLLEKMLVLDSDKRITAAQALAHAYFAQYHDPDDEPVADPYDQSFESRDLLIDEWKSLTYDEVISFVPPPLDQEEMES

Akt/PKB = Akt/PKB (Homo sapiens, UniProt P31749); assay: Kinase specificity panel: Akt/PKB; assay type: biochemical; conditions: Table 2
ERK2 = ERK2 (Homo sapiens, UniProt P28482); assay: Kinase specificity panel: ERK2; assay type: biochemical; conditions: Table 2
Chain of ERK2 (P28482 whole entry, species assumed): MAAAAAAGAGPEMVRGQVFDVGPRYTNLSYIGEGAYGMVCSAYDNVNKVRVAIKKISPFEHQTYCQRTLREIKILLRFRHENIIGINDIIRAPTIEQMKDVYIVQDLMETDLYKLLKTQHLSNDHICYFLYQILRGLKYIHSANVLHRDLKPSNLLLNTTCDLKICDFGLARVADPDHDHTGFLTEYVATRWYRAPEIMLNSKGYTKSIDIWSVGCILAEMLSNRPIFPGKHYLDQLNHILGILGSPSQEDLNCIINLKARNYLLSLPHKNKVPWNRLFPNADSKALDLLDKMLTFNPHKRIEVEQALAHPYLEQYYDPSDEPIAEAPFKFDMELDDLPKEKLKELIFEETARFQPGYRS

CaMKII = assay type: biochemical; conditions: Table 2
PKC = target: T2, PKC (Homo sapiens, UniProt P17252); assay: PKC kinase assay (Histone 3 phosphorylation); assay type: biochemical; conditions: Table 2
T2 construct: 6xHis (C); made in house; host or cells: Sf9 insect cells (baculovirus)
Description: PKCα kinase activity may be measured by the incorporation of radio-labeled phosphate in Histone 3, as described. The reaction mixture (total volume 65 μl) consist of 50 mM Tris-HCl, 1 mM Calcium acetate, 3 mM DTT, 0.03 mg/ml Phosphatidylserine, 2.4 μg/ml PMA, 0.04% NP40, 12 mM Mg/Cl, purified PKCα-100 ng, Histone 3, 0.2 mg/ml, 100 μM ATP, 0.2 μCi [γ-^32P]-ATP. The reaction is carried over 15 min at 37° C. in microplate shaker and is stopped by adding 10 μl 75 mM orthophosphoric acid and placing the plate on ice. 50 μl of the reaction mixture is transferred onto P81 filterplate and after washing off the free radioactive phosphate (3 times with 200 μl 75 mM orthophosphoric acid per well) 50 μl of scintillation liquid (Microscint 40) were added to each well and the radioactivity is measured on Scintillation counter (Topcount, HP).

CDK2/cyclin A = CDK2/cyclin A (Homo sapiens, UniProt P24941); assay: CDK2/cyclin A kinase assay; assay type: biochemical;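 further: Read-out is incorporated radioactivity retained on P81 filter plates and quantified by scintillation counting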
Description: Reactions were stopped on ice, followed by filtration through p81 filterplates (Whatman Polyfiltronics, Kent, UK). After washing 3 times with 75 mM orthophosphoric acid, plates were dried, scintillant added and incorporated radioactivity measured in a scintillation counter (TopCount, Packard Instruments, Pangboume, Berks, UK).

[2] = Table 3, read-out: Average IC50 CDK9 cyclin T1
[3] = Table 3, read-out: Average IC50 CDK2 cyclin E1
[4] = Table 3, read-out: Average IC50 CDK4 cyclin D1
[5] = Table 3, read-out: Average IC50 CDK7 cyclin H
[6] = Table 2, read-out: Average IC50 CDK4 cyclin D1
[7] = Table 2, read-out: Average IC50 CDK7 cyclin H
[8] = Table 3, read-out: Average IC50 CDK2 cyclin A2

Row | pIC50 (CDK4/Cyclin D1; [4]) | pIC50 (CDK1/Cyclin B) | pIC50 (CDK2/cyclin A; [8]) | Compound | TI (therapeutic index: TC50/IC50) (HIV-1RoJo/PBMC) | pIC50 (HIV-1RoJo/PBMC) | IC90 (HIV-1RoJo/PBMC) [nM] | pIC50 (CDK9/cyclin T1; [2]) | anti-viral effectiveness as demonstrated by cell-based assays (HIV-1) | pIC50 (CDK2/Cyclin E; [3]) | CC50 at 7 days ([1]; HIV-1RoJo/PBMC) [µM] | pIC50 (CDK7/cyclin H; [5]) | pIC50 (SAPK2a) | pIC50 (Akt/PKB) | pIC50 (ERK2) | pIC50 (CaMKII) | pIC50 (PKC) | also measured
1 |  |  |  | CNc1nc(C)c(-c2ccnc(Nc3cccc(O)c3)n2)s1 [Compound 70, 3-[4-(4-Methyl-2-methylamino-thiazol-5-yl)-pyrimidin-2-ylamino]-phenol] | 4.3 | 6.20 | 2600 | 7.32 | particularly effective anti-viral agents | 6.57 | 2.7 | 5.47 |  |  |  |  |  | 
2 | < 4.30 | 4.42 |  | Cc1nc(C)c(-c2ccnc(Nc3ccc(F)cc3F)n2)s1 [Compound 9, (2,4-Difluoro-phenyl)-[4-(2,4-dimethyl-thiazol-5-yl)-pyrimidin-2-yl]-amine] |  |  |  |  |  |  |  |  | 4.40 | < 4.30 | 4.26 | < 4.30 | 4.40 | pIC50 (CDK2/Cyclin E; Table 2, read-out: Average IC50 CDK2 cyclin E1): 5.20; pIC50 (CDK4/Cyclin D1; [6]): < 4.30
3 |  | 5.05 |  | COc1ccc(Nc2nccc(-c3sc(C)nc3C)n2)cc1 [Compound 26, [4-(2,4-Dimethyl-thiazol-5-yl)-pyrimidin-2-yl]-(4-methoxy-phenyl)-amine] |  |  |  |  |  |  |  |  | 4.35 | < 4.30 | < 4.30 | < 4.30 | < 4.30 | pIC50 (CDK4/Cyclin D1; [6]): 5.62
4 |  | 7.02 |  | Cc1ccc(Nc2nccc(-c3sc(=O)n(C)c3C)n2)cc1[N+](=O)[O-] [Compound 163, 3,4-Dimethyl-5-[2-(4-methyl-3-nitro-phenylamino)-pyrimidin-4-yl]-3H-thiazol-2-one] |  |  |  |  |  |  |  |  |  |  |  |  |  | pIC50 (CDK2/cyclin A; Table 4, read-out: Kinase Inhibition IC50 CDK2-cyclin A): 7.08; pIC50 (CDK9/cyclin T1; Table 4, read-out: Kinase Inhibition IC50 CDK9-cyclin T1): 7.85; pIC50 (CDK2/Cyclin E; Table 4, read-out: Kinase Inhibition IC50 CDK2-cyclin E): 4.44; pIC50 (CDK4/Cyclin D1; Table 4, read-out: Kinase Inhibition IC50 CDK4-cyclin D1): 6.96; pIC50 (CDK7/cyclin H; Table 4, read-out: Kinase Inhibition IC50 CDK7-cyclin H): 8.92
5 | 5.77 | 5.82 | 6.28 | Cc1nc(C)c(-c2ccnc(Nc3cccc(N)c3)n2)s1 [Compound 34, N-[4-(2,4-Dimethyl-thiazol-5-yl)-pyrimidin-2-yl]-benzene-1,3-diamine] |  |  |  | 6.39 |  | 6.28 |  | 5.28 |  |  |  |  |  | 
6 |  |  |  | CNc1nc(C)c(-c2ccnc(Nc3ccc(F)cc3)n2)s1 [Compound 47, (4-Fluoro-phenyl)-[4-(4-methyl-2-methylamino-thiazol-5-yl)-pyrimidin-2-yl]-amine] | 34 | 6.70 | 1200 | 7.09 | particularly effective anti-viral agents | 7.43 | 6.8 |  |  |  |  |  |  | 
7 | 3.98 | 4.31 | 5.74 | Cc1nc(N(C)C)sc1-c1ccnc(Nc2cccc([N+](=O)[O-])c2)n1 [Compound 140, [4-(2-Dimethylamino-4-methyl-thiazol-5-yl)-pyrimidin-2-yl]-(3-nitro-phenyl)-amine] |  |  |  | 5.15 |  | 6.32 |  | < 4.00 |  |  |  |  |  | 
8 | 6.09 | 5.74 | 6.38 | Cc1nc(N)sc1-c1ccnc(Nc2ccc(CCO)cc2)n1 [Compound 118, 2-{4-[4-(2-Amino-4-methyl-thiazol-5-yl)-pyrimidin-2-ylamino]-phenyl}-ethanol] |  |  |  | 6.10 |  | 6.41 |  | 5.55 |  |  |  |  |  | 

Row | Compound | pIC50 (CDK4/Cyclin D1; [4]) | pIC50 (CDK1/Cyclin B) | pIC50 (CDK2/cyclin A; [8]) | TI (therapeutic index: TC50/IC50) (HIV-1RoJo/PBMC) | pIC50 (HIV-1RoJo/PBMC) | IC90 (HIV-1RoJo/PBMC) [nM] | pIC50 (CDK9/cyclin T1; [2]) | anti-viral effectiveness as demonstrated by cell-based assays (HIV-1) | pIC50 (CDK2/Cyclin E; [3]) | CC50 at 7 days ([1]; HIV-1RoJo/PBMC) [µM] | pIC50 (CDK7/cyclin H; [5]) | pIC50 (SAPK2a) | pIC50 (Akt/PKB) | pIC50 (ERK2) | pIC50 (CaMKII) | pIC50 (PKC) | also measured
9 | Cc1nc(C)c(-c2ccnc(Nc3ccc(O)cc3)n2)s1 [Compound 28, 4-[4-(2,4-Dimethyl-thiazol-5-yl)-pyrimidin-2-ylamino]-phenol] | 6.22 | 5.74 |  | 80 | 6.55 | 21000 | 6.34 | particularly effective anti-viral agents | 6.55 | 22 | 5.62 |  |  |  |  |  | 
10 | Cc1nc(C)c(-c2ccnc(Nc3ccc(N(C)C)cc3)n2)s1 [Compound 103, N,N-Dimethyl-N′-[4-(2,4-dimethyl-thiazol-5-yl)-pyrimidin-2-yl]-benzene-1,4-diamine] |  | 5.14 |  |  |  |  | 5.74 | particularly effective anti-viral agents |  | > 100 | 4.96 |  |  |  |  |  | CC50 at 7 days ([1]; HIV-1WeJo/PBMC): 0.8 µM
11 | Cc1nc(C)c(-c2ccnc(Nc3cccc([N+](=O)[O-])c3)n2)s1 [Compound 5, [4-(2,4-Dimethyl-thiazol-5-yl)-pyrimidin-2-yl]-(3-nitro-phenyl)-amine] |  | 4.77 |  |  |  |  |  |  |  |  |  | 4.40 | < 4.30 | 4.40 | < 4.30 | 4.46 | pIC50 (CDK7/cyclin H; [7]): 4.89
12 | Cc1nc(C)c(-c2ccnc(Nc3ccc(C(F)(F)F)cc3)n2)s1 [Compound 15, [4-(2,4-Dimethyl-thiazol-5-yl)-pyrimidin-2-yl]-(4-trifluoromethyl-phenyl)-amine] |  | 4.47 |  |  |  |  |  |  |  |  | < 4.00 | < 4.30 | < 4.30 | < 4.30 | < 4.30 | < 4.30 | pIC50 (CDK7/cyclin H; [7]): < 4.00
13 | COc1ccc(Nc2nccc(-c3sc(C)nc3C)n2)cc1OC [Compound 125, (3,4-Dimethoxy-phenyl)-[4-(2,4-dimethyl-thiazol-5-yl)-pyrimidin-2-yl]-amine] | 5.96 | 6.60 | 6.59 | 33 | 6.09 | 970 | 6.23 | particularly effective anti-viral agents | 7.48 | 27 | 5.23 |  |  |  |  |  | 
